Data taken from patent US20080051387A1, “TETRAHYDROPYRIDO[3,4-D]PYRIMIDINES AND RELATED ANALOGUES” (priority 2006, published 2008).

molecular target: T1, chimeric human H3 receptor (Homo sapiens, UniProt Q9Y5N1); experiment: Chimeric human H3 receptor screening GTP binding assay (inhibition of histamine-stimulated GTP-gamma35S binding, Example 8); assay type: biochemical; conditions: 1 h; assay described in Example 8; symbol "!" in column headed Ki; read-out: Ki ("!": percent inhibition of agonist-induced GTP-gammaS binding to H3)
T1 construct: rat Galpha-i2 (Gnai2, rat); made in house; host or cells: Sf9 insect cells (baculovirus); P2 membranes
T1 sequence (Q9Y5N1 with tags, fused parts or gaps): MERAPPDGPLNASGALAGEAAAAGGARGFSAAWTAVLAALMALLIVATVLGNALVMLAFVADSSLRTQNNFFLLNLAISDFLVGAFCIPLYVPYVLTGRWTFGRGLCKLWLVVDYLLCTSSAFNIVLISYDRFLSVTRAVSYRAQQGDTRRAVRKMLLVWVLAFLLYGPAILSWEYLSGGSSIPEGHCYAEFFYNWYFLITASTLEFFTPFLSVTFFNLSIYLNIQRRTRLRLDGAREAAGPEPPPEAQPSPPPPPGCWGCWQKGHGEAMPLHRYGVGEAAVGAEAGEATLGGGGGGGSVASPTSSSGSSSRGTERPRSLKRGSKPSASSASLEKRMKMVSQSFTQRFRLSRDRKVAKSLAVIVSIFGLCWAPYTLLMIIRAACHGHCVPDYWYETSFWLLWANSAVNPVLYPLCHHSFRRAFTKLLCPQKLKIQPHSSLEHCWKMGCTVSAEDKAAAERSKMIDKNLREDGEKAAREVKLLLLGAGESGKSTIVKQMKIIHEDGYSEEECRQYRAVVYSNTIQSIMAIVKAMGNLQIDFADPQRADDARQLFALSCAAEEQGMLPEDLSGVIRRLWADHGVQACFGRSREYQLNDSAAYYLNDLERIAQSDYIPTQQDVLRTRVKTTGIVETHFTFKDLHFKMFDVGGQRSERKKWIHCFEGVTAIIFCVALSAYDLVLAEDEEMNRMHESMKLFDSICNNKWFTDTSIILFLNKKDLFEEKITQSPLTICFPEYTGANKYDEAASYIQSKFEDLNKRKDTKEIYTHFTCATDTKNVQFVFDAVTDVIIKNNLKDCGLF
Outline: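 Sf9 membranes co-expressing chimeric human H3 receptor and heterotrimeric G-protein (35 μg protein) incubated 60 min at room temperature with 4 μM compound, 1 μM histamine and 125 pM GTP-gamma35S in pH 7.4 buffer with 10 μM GDP. Filter-bound radioactivity, nonspecific (10 μM GTP-gammaS) subtracted, reported as % inhibition of histamine signal.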

Row | inhibition at 4 µM [%] | Structure (SMILES)
1 | ≥ 90 | O=C(c1cnn(-c2ccc(Cl)cc2)c1C(F)(F)F)N1CCc2cnc(N3CCN(C4CCC4)CC3)nc2CC1 [Compound 507, 7-{[1-(4-chlorophenyl)-5-(trifluoromethyl)-1H-pyrazol-4-yl]carbonyl}-2-(4-cyclobutylpiperazin-1-yl)-6,7,8,9-tetrahydro-5H-pyrimido[4,5-d]azepine]
2 | ≥ 90 | O=C(c1c(-c2ccccc2)nnc2ccccc12)N1CCc2cnc(N3CCN(C4CCC4)CC3)nc2CC1 [Compound 510, 2-(4-cyclobutylpiperazin-1-yl)-7-[(3-phenylcinnolin-4-yl)carbonyl]-6,7,8,9-tetrahydro-5H-pyrimido[4,5-d]azepine]
3 | ≥ 90 | COc1ccc(Br)c(C(=O)N2CCc3cnc(N4CCN(C5CCC5)CC4)nc3CC2)c1 [Compound 413, 7-(2-bromo-5-methoxybenzoyl)-2-(4-cyclobutylpiperazin-1-yl)-6,7,8,9-tetrahydro-5H-pyrimido[4,5-d]azepine]
4 | ≥ 90 | COc1ccc(C(=O)N2CCc3cnc(N4CCN(C5CCC5)CC4)nc3CC2)c(OC)c1OC [Compound 432, 2-(4-cyclobutylpiperazin-1-yl)-7-(2,3,4-trimethoxybenzoyl)-6,7,8,9-tetrahydro-5H-pyrimido[4,5-d]azepine]
5 | ≥ 90 | O=C(c1csc(-c2ccncc2)n1)N1CCc2cnc(N3CCN(C4CCC4)CC3)nc2CC1 [Compound 530, 2-(4-cyclobutylpiperazin-1-yl)-7-[(2-pyridin-4-yl-1,3-thiazol-4-yl)carbonyl]-6,7,8,9-tetrahydro-5H-pyrimido[4,5-d]azepine]
6 | ≥ 90 | O=C(c1ccccc1CCc1ccccc1)N1CCc2cnc(N3CCN(C4CCC4)CC3)nc2CC1 [Compound 411, 2-(4-cyclobutylpiperazin-1-yl)-7-[2-(2-phenylethyl)benzoyl]-6,7,8,9-tetrahydro-5H-pyrimido[4,5-d]azepine]
7 | ≥ 90 | O=C(c1cccnc1Oc1ccc(Cl)cc1)N1CCc2cnc(N3CCN(C4CCC4)CC3)nc2CC1 [Compound 497]
8 | ≥ 90 | O=C(c1ccnc(Cl)c1)N1CCc2cnc(N3CCN(C4CCC4)CC3)nc2CC1 [Compound 483, 7-(2-chloroisonicotinoyl)-2-(4-cyclobutylpiperazin-1-yl)-6,7,8,9-tetrahydro-5H-pyrimido[4,5-d]azepine]

More lines, now with the values behind:

Row | Structure (SMILES) | inhibition at 4 µM [%]
9 | O=C(c1cccc(C(F)(F)F)c1)N1CCc2cnc(N3CCN(C4CCC4)CC3)nc2CC1 [Compound 397, 2-(4-cyclobutylpiperazin-1-yl)-7-[3-(trifluoromethyl)benzoyl]-6,7,8,9-tetrahydro-5H-pyrimido[4,5-d]azepine] | ≥ 90
10 | CSc1ccccc1C(=O)N1CCc2cnc(N3CCN(C4CCC4)CC3)nc2CC1 [Compound 408, 2-(4-cyclobutylpiperazin-1-yl)-7-[2-(methylthio)benzoyl]-6,7,8,9-tetrahydro-5H-pyrimido[4,5-d]azepine] | ≥ 90
11 | O=C(c1cccc(Cl)c1)N1CCc2cnc(N3CCN(C4CCC4)CC3)nc2CC1 [Compound 386, 7-(3-chlorobenzoyl)-2-(4-cyclobutylpiperazin-1-yl)-6,7,8,9-tetrahydro-5H-pyrimido[4,5-d]azepine] | ≥ 90

same assay, conditions: 1 h; assay of Example 8; symbol "!" in column headed Ki; read-out: percent inhibition of agonist-induced GTP-gammaS binding to H3

Row | inhibition at 4 µM [%] | Structure (SMILES)
12 | ≥ 90 | CC(C)CC(=O)N1CCc2cnc(N3CCN(C4CCC4)CC3)nc2CC1 [Compound 208, 2-(4-cyclobutylpiperazin-1-yl)-7-(3-methylbutanoyl)-6,7,8,9-tetrahydro-5H-pyrimido[4,5-d]azepine]
13 | ≥ 90 | CC(C)Oc1ccc(C(=O)N2CCc3cnc(N4CCN(C5CCC5)CC4)nc3CC2)cc1 [Compound 380, 2-(4-cyclobutylpiperazin-1-yl)-7-(4-isopropoxybenzoyl)-6,7,8,9-tetrahydro-5H-pyrimido[4,5-d]azepine]
14 | ≥ 90 | CC(C)(Oc1ccc(Cl)cc1)C(=O)N1CCc2cnc(N3CCN(C4CCC4)CC3)nc2CC1 [Compound 337, 7-[2-(4-chlorophenoxy)-2-methylpropanoyl]-2-(4-cyclobutylpiperazin-1-yl)-6,7,8,9-tetrahydro-5H-pyrimido[4,5-d]azepine]
15 | ≥ 90 | CC(C)(C)c1ccc(OCC(=O)N2CCc3cnc(N4CCN(C5CCC5)CC4)nc3CC2)cc1 [Compound 329, 7-[(4-tert-butylphenoxy)acetyl]-2-(4-cyclobutylpiperazin-1-yl)-6,7,8,9-tetrahydro-5H-pyrimido[4,5-d]azepine]
16 | ≥ 90 | O=C(C1CC1)N1CCc2cnc(N3CCN(C4CCC4)CC3)nc2CC1 [Compound 215, 2-(4-cyclobutylpiperazin-1-yl)-7-(cyclopropylcarbonyl)-6,7,8,9-tetrahydro-5H-pyrimido[4,5-d]azepine]
17 | ≥ 90 | Cc1ncccc1C(=O)N1CCc2cnc(N3CCN(C4CCC4)CC3)nc2CC1 [Compound 202, 2-(4-cyclobutylpiperazin-1-yl)-7-[(2-methylpyridin-3-yl)carbonyl]-6,7,8,9-tetrahydro-5H-pyrimido[4,5-d]azepine]
18 | ≥ 90 | CCC(C(=O)N1CCc2cnc(N3CCN(C4CCC4)CC3)nc2CC1)c1ccccc1 (centres unmarked) [Compound 348, 2-(4-cyclobutylpiperazin-1-yl)-7-(2-phenylbutanoyl)-6,7,8,9-tetrahydro-5H-pyrimido[4,5-d]azepine]
19 | ≥ 90 | O=C(COc1cccc(Cl)c1)N1CCc2cnc(N3CCN(C4CCC4)CC3)nc2CC1 [Compound 330, 7-[(3-chlorophenoxy)acetyl]-2-(4-cyclobutylpiperazin-1-yl)-6,7,8,9-tetrahydro-5H-pyrimido[4,5-d]azepine]
20 | ≥ 90 | O=C(Cc1ccccc1)N1CCc2cnc(N3CCN(C4CCC4)CC3)nc2CC1 [Compound 213, 2-(4-cyclobutylpiperazin-1-yl)-7-(phenylacetyl)-6,7,8,9-tetrahydro-5H-pyrimido[4,5-d]azepine]
21 | ≥ 90 | COc1ccccc1OCC(=O)N1CCc2cnc(N3CCN(C4CCC4)CC3)nc2CC1 [Compound 323, 2-(4-cyclobutylpiperazin-1-yl)-7-[(2-methoxyphenoxy)acetyl]-6,7,8,9-tetrahydro-5H-pyrimido[4,5-d]azepine]

same assay, conditions: symbol ! in Ki; test compound 4 μM, 1 μM histamine; read-out: percent inhibition of agonist-induced GTP-gammaS binding to H3

Row | inhibition at 4 µM [%] | Structure (SMILES)
22 | ≥ 90 | c1cc2c(cc1CN1CCc3nc(N4CCN(C5CCC5)CC4)ncc3C1)OCCO2 [Compound 638, 2-(4-cyclobutylpiperazin-1-yl)-6-(2,3-dihydro-1,4-benzodioxin-6-ylmethyl)-5,6,7,8-tetrahydropyrido[4,3-d]pyrimidine]
23 | ≥ 90 | COc1cccc(CN2CCc3nc(N4CCN(C5CCC5)CC4)ncc3C2)c1OC [Compound 640, 2-(4-cyclobutylpiperazin-1-yl)-6-(2,3-dimethoxybenzyl)-5,6,7,8-tetrahydropyrido[4,3-d]pyrimidine]
24 | ≥ 90 | CCCN1CCc2nc(N3CCN(C4CCC4)CC3)ncc2C1 [Compound 627, 2-(4-cyclobutylpiperazin-1-yl)-6-propyl-5,6,7,8-tetrahydropyrido[4,3-d]pyrimidine]

More lines, now with the values behind:

Row | Structure (SMILES) | inhibition at 4 µM [%]
25 | Cn1ccnc1CN1CCc2c(ncnc2N2CCN(C3CCC3)CC2)C1 [Compound 71, 4-(4-cyclobutylpiperazin-1-yl)-7-[(1-methyl-1H-imidazol-2-yl)methyl]-5,6,7,8-tetrahydropyrido[3,4-d]pyrimidine] | ≥ 90
26 | CCCCC(=O)N1CCc2c(ncnc2N2CCN(C3CCC3)CC2)C1 [Compound 44, 4-(4-cyclobutylpiperazin-1-yl)-7-pentanoyl-5,6,7,8-tetrahydropyrido[3,4-d]pyrimidine] | ≥ 90
27 | c1nc2c(c(N3CCN(C4CCC4)CC3)n1)CCN(Cc1ccc(N3CCCC3)nc1)C2 [Compound 96, 4-(4-cyclobutylpiperazin-1-yl)-7-[(6-pyrrolidin-1-ylpyridin-3-yl)methyl]-5,6,7,8-tetrahydropyrido[3,4-d]pyrimidine] | ≥ 90
28 | CCC(CC)CN1CCc2ncnc(N3CCN(C4CCC4)CC3)c2CC1 [Compound 168, 4-(4-cyclobutylpiperazin-1-yl)-7-(2-ethylbutyl)-6,7,8,9-tetrahydro-5H-pyrimido[4,5-d]azepine] | ≥ 90
29 | c1ccc2ncc(CN3CCc4ncnc(N5CCN(C6CCC6)CC5)c4CC3)cc2c1 [Compound 152, 4-(4-cyclobutylpiperazin-1-yl)-7-(quinolin-3-ylmethyl)-6,7,8,9-tetrahydro-5H-pyrimido[4,5-d]azepine] | ≥ 90
30 | Cc1cccc(CN2CCc3c(ncnc3N3CCN(C4CCC4)CC3)C2)n1 [Compound 74, 4-(4-cyclobutylpiperazin-1-yl)-7-[(6-methylpyridin-2-yl)methyl]-5,6,7,8-tetrahydropyrido[3,4-d]pyrimidine] | ≥ 90
31 | Cc1ccc(C)c(C(=O)N2CCc3c(ncnc3N3CCN(C4CCC4)CC3)C2)c1 [Compound 64, 4-(4-cyclobutylpiperazin-1-yl)-7-(2,5-dimethylbenzoyl)-5,6,7,8-tetrahydropyrido[3,4-d]pyrimidine] | ≥ 90
32 | COCCC(=O)N1CCc2c(ncnc2N2CCN(C3CCC3)CC2)C1 [Compound 51, 4-(4-cyclobutylpiperazin-1-yl)-7-(3-methoxypropanoyl)-5,6,7,8-tetrahydropyrido[3,4-d]pyrimidine] | ≥ 90
33 | Cc1cccc(C(C)N2CCc3c(ncnc3N3CCN(C4CCC4)CC3)C2)c1 (centres unmarked) [Compound 105, 4-(4-cyclobutylpiperazin-1-yl)-7-[1-(3-methylphenyl)ethyl]-5,6,7,8-tetrahydropyrido[3,4-d]pyrimidine] | ≥ 90
34 | CC(c1ccc2ccccc2n1)N1CCc2c(ncnc2N2CCN(C3CCC3)CC2)C1 (centres unmarked) [Compound 130, 4-(4-cyclobutylpiperazin-1-yl)-7-(1-quinolin-2-ylethyl)-5,6,7,8-tetrahydropyrido[3,4-d]pyrimidine] | ≥ 90
35 | Cc1cc(CN2CCc3c(ncnc3N3CCN(C4CCC4)CC3)C2)n(C)n1 [Compound 77] | ≥ 90
